Laboratory results: US11944605B2, “Rapamycin analogs and uses thereof” (Janssen Pharmaceutica NV, priority 2018, dated 2024)

Test system: pS6K1 (p-p70 S6 Kinase (Thr389)) in MCF-7 cells
Assay: AlphaLISA Ultra pS6K1 Assay
Assay type: cell-based
Details: Homo sapiens, 1.5 h; MCF7 cells, 90 min
Protocol: AlphaLISA Ultra pS6K1 Assay
1. Seed MCF-7 cells in Corning 3701 plate and incubate for 20˜24 hour. 12,000˜16,000 cells will be seeded in 36 μL medium per well.
2. Change the culture medium with fresh medium and incubate for another 2 hours.
3. Add 12 μL (4×) compounds into the cell plate by HAMILTON. Final DMSO concentration is 0.5%. Incubate for 90 minutes.
4. Aspirate […] by HAMILTON, 10 μL rest per well.
5. Add 10 μL 2× lysis buffer using HAMILTON; total volume in wells is 20 μL. Allow cells to shake for 30 min. Cover plate by plastic foil and store plate at −80° C. up to analysis.
6. Thaw cell lysate at RT and transfer 10 μL lysate to assay plate (Optiplate-384).
7. Add 5 μL acceptor beads into assay plate and incubation for 2 hours
8. Add 5 μL donor beads and incubation for 2 hours
9. Count the plate by EnSpire Multimode Plate Reader

IC50 [nM] | SMILES
< 0.1 | CO[C@@H]1C[C@H](C[C@@H](C)[C@@H]2CC(=O)[C@H](C)/C=C(\C)[C@@H](O)[C@@H](OC)C(=O)[C@H](C)C[C@H](C)/C=C/C=C/C=C(\C)[C@H](OC[C@@H](O)[C@@H](O)[C@H](O)[C@H](O)CO)C[C@@H]3CC[C@@H](C)[C@@](O)(O3)C(=O)C(=O)N3CCCC[C@H]3C(=O)O2)CC[C@H]1O [Compound I-57]
0.1 to 1 | CO[C@@H]1C[C@H](C[C@@H](C)[C@@H]2CC(=O)[C@H](C)/C=C(\C)[C@@H](O)[C@@H](OC)C(=O)[C@H](C)C[C@H](C)/C=C/C=C/C=C(\C)[C@@H](OC[C@@H](O)[C@@H](O)[C@H](O)[C@H](O)CO)C[C@@H]3CC[C@@H](C)[C@@](O)(O3)C(=O)C(=O)N3CCCC[C@H]3C(=O)O2)CC[C@H]1O [Compound I-58]
≥ 100 | CO[C@@H]1C[C@H](C[C@@H](C)[C@@H]2CC(=O)[C@H](C)/C=C(\C)[C@@H](O)[C@@H](OC)C(=O)[C@H](C)C[C@H](C)/C=C/C=C/C=C(\C)C(OC[C@@H](O)[C@@H](O)[C@H](O)[C@H](O)CO)C[C@@H]3CC[C@@H](C)[C@@](O)(O3)C(=O)C(=O)N3CCCC[C@H]3C(=O)O2)CC[C@H]1O (some centres unmarked) [Compound I-63]
1 to 10 | CO[C@@H]1C[C@H](C[C@@H](C)[C@@H]2CC(=O)[C@H](C)/C=C(\C)[C@@H](O)[C@@H](OC)C(=O)[C@H](C)C[C@H](C)/C=C/C=C/C=C(\C)[C@H](OCCOCC(COCCO)COCCO)C[C@@H]3CC[C@@H](C)[C@@](O)(O3)C(=O)C(=O)N3CCCC[C@H]3C(=O)O2)CC[C@H]1O [Compound I-64]
0.1 to 1 | CO[C@@H]1C[C@H](C[C@@H](C)[C@@H]2CC(=O)[C@H](C)/C=C(\C)[C@@H](O)[C@@H](OC)C(=O)[C@H](C)C[C@H](C)/C=C/C=C/C=C(\C)[C@@H](OCCOCC(COCCO)COCCO)C[C@@H]3CC[C@@H](C)[C@@](O)(O3)C(=O)C(=O)N3CCCC[C@H]3C(=O)O2)CC[C@H]1O [Compound I-65]
1 to 10 | CO[C@@H]1C[C@H](C[C@@H](C)[C@@H]2CC(=O)[C@H](C)/C=C(\C)[C@@H](O)[C@@H](OC)C(=O)[C@H](C)C[C@H](C)/C=C/C=C/C=C(\C)[C@H](OCCOCCO)C[C@@H]3CC[C@@H](C)[C@@](O)(O3)C(=O)C(=O)N3CCCC[C@H]3C(=O)O2)CC[C@H]1OCCOCCO [Compound I-66]
1 to 10 | CO[C@@H]1C[C@H](C[C@@H](C)[C@@H]2CC(=O)[C@H](C)/C=C(\C)[C@@H](O)[C@@H](OC)C(=O)[C@H](C)C[C@H](C)/C=C/C=C/C=C(\C)[C@@H](OCCOCCOCCO)C[C@@H]3CC[C@@H](C)[C@@](O)(O3)C(=O)C(=O)N3CCCC[C@H]3C(=O)O2)CC[C@H]1OCCOCCOCCO [Compound I-73]
0.1 to 1 | CNC(=O)OCCO[C@@H]1C[C@@H]2CC[C@@H](C)[C@@](O)(O2)C(=O)C(=O)N2CCCC[C@H]2C(=O)O[C@H]([C@H](C)C[C@@H]2CC[C@@H](OCCO)[C@H](OC)C2)CC(=O)[C@H](C)/C=C(\C)[C@@H](O)[C@@H](OC)C(=O)[C@H](C)C[C@H](C)/C=C/C=C/C=C/1C [Compound I-74]
1 to 10 | CO[C@@H]1C[C@H](C[C@@H](C)[C@@H]2CC(=O)[C@H](C)/C=C(\C)[C@@H](O)[C@@H](OC)C(=O)[C@H](C)C[C@H](C)/C=C/C=C/C=C(\C)C(OCCOCCO)C[C@@H]3CC[C@@H](C)[C@@](O)(O3)C(=O)C(=O)N3CCCC[C@H]3C(=O)O2)CC[C@H]1OCCOCCO (some centres unmarked) [Compound I-76]
0.1 to 1 | CO[C@@H]1C[C@H](C[C@@H](C)[C@@H]2CC(=O)[C@H](C)/C=C(\C)[C@@H](O)[C@@H](OC)C(=O)[C@H](C)C[C@H](C)/C=C/C=C/C=C(\C)[C@@H](OCCOCCOC(F)(F)C(F)(F)F)C[C@@H]3CC[C@@H](C)[C@@](O)(O3)C(=O)C(=O)N3CCCC[C@H]3C(=O)O2)CC[C@H]1OCCO [Compound I-80]
< 0.1 | CO[C@@H]1C[C@H](C[C@@H](C)[C@@H]2CC(=O)[C@H](C)/C=C(\C)[C@@H](O)[C@@H](OC)C(=O)[C@H](C)C[C@H](C)/C=C/C=C/C=C(\C)C(OCCOCCOCC(F)(F)F)C[C@@H]3CC[C@@H](C)[C@@](O)(O3)C(=O)C(=O)N3CCCC[C@H]3C(=O)O2)CC[C@H]1OCCO (some centres unmarked) [Compound I-86]
< 0.1 | CO[C@@H]1C[C@H](C[C@@H](C)[C@@H]2CC(=O)[C@H](C)/C=C(\C)[C@@H](O)[C@@H](OC)C(=O)[C@H](C)C[C@H](C)/C=C/C=C/C=C(\C)C(OCCOCCOC(F)(F)C(F)(F)F)C[C@@H]3CC[C@@H](C)[C@@](O)(O3)C(=O)C(=O)N3CCCC[C@H]3C(=O)O2)CC[C@H]1OCCO (some centres unmarked) [Compound I-87]
< 0.1 | CO[C@@H]1C[C@H](C[C@@H](C)[C@@H]2CC(=O)[C@H](C)/C=C(\C)[C@@H](O)[C@@H](OC)C(=O)[C@H](C)C[C@H](C)/C=C/C=C/C=C(\C)C(OCCOCCOCC(F)(F)F)C[C@@H]3CC[C@@H](C)[C@@](O)(O3)C(=O)C(=O)N3CCCC[C@H]3C(=O)O2)CC[C@H]1O (some centres unmarked) [Compound I-91]

More lines, now with the values behind:

SMILES | IC50 [nM]
CO[C@@H]1C[C@H](C[C@@H](C)[C@@H]2CC(=O)[C@H](C)/C=C(\C)[C@@H](O)[C@@H](OC)C(=O)[C@H](C)C[C@H](C)/C=C/C=C/C=C(\C)[C@@H](OCCOCCO)C[C@@H]3CC[C@@H](C)[C@@](O)(O3)C(=O)C(=O)N3CCCC[C@H]3C(=O)O2)CC[C@H]1OCCOCCO [Compound I-67] | 0.1 to 1
CO[C@@H]1C[C@H](C[C@@H](C)[C@@H]2CC(=O)[C@H](C)/C=C(\C)[C@@H](O)[C@@H](OC)C(=O)[C@H](C)C[C@H](C)/C=C/C=C/C=C(\C)[C@H](OCCOCCOCCO)C[C@@H]3CC[C@@H](C)[C@@](O)(O3)C(=O)C(=O)N3CCCC[C@H]3C(=O)O2)CC[C@H]1OCCOCCOCCO [Compound I-72] | 1 to 10
CNC(=O)OCCO[C@H]1C[C@@H]2CC[C@@H](C)[C@@](O)(O2)C(=O)C(=O)N2CCCC[C@H]2C(=O)OC([C@H](C)CC2CC[C@@H](OCCO)[C@H](OC)C2)CC(=O)[C@H](C)/C=C(\C)[C@@H](O)[C@@H](OC)C(=O)[C@H](C)C[C@H](C)/C=C/C=C/C=C/1C (some centres unmarked) [Compound I-75] | < 0.1
CO[C@@H]1C[C@H](C[C@@H](C)[C@@H]2CC(=O)[C@H](C)/C=C(\C)[C@@H](O)[C@@H](OC)C(=O)[C@H](C)C[C@H](C)/C=C/C=C/C=C(\C)C(OCCOCCOCCO)C[C@@H]3CC[C@@H](C)[C@@](O)(O3)C(=O)C(=O)N3CCCC[C@H]3C(=O)O2)CC[C@H]1OCCOCCOCCO (some centres unmarked) [Compound I-78] | 1 to 10
CO[C@@H]1C[C@H](C[C@@H](C)[C@@H]2CC(=O)[C@H](C)/C=C(\C)[C@@H](O)[C@@H](OC)C(=O)[C@H](C)C[C@H](C)/C=C/C=C/C=C(\C)[C@H](OCCOCCOC(F)(F)C(F)(F)F)C[C@@H]3CC[C@@H](C)[C@@](O)(O3)C(=O)C(=O)N3CCCC[C@H]3C(=O)O2)CC[C@H]1OCCO [Compound I-79] | 1 to 10
CNC(=O)OCCOC1C[C@@H]2CC[C@@H](C)[C@@](O)(O2)C(=O)C(=O)N2CCCC[C@H]2C(=O)O[C@H]([C@H](C)C[C@@H]2CC[C@@H](OCCO)[C@H](OC)C2)CC(=O)[C@H](C)/C=C(\C)[C@@H](O)[C@@H](OC)C(=O)[C@H](C)C[C@H](C)/C=C/C=C/C=C/1C (some centres unmarked) [Compound I-81] | 1 to 10
CO[C@@H]1C[C@H](C[C@@H](C)[C@@H]2CC(=O)[C@H](C)/C=C(\C)[C@@H](O)[C@@H](OC)C(=O)[C@H](C)C[C@H](C)/C=C/C=C/C=C(\C)[C@H](OCCOCCOC(F)(F)F)C[C@@H]3CC[C@@H](C)[C@@](O)(O3)C(=O)C(=O)N3CCCC[C@H]3C(=O)O2)CC[C@H]1OCCO [Compound I-82] | 0.1 to 1
CO[C@@H]1C[C@H](C[C@@H](C)[C@@H]2CC(=O)[C@H](C)/C=C(\C)[C@@H](O)[C@@H](OC)C(=O)[C@H](C)C[C@H](C)/C=C/C=C/C=C(\C)C(OCCOCCOC(F)(F)F)C[C@@H]3CC[C@@H](C)[C@@](O)(O3)C(=O)C(=O)N3CCCC[C@H]3C(=O)O2)CC[C@H]1OCCO (some centres unmarked) [Compound I-88] | < 0.1
COCCOCCO[C@@H]1C[C@@H]2CC[C@@H](C)[C@@](O)(O2)C(=O)C(=O)N2CCCC[C@H]2C(=O)O[C@H]([C@H](C)C[C@@H]2CC[C@@H](OCCOC)[C@H](OC)C2)CC(=O)[C@H](C)/C=C(\C)[C@@H](O)[C@@H](OC)C(=O)[C@H](C)C[C@H](C)/C=C/C=C/C=C/1C [Compound I-89] | 1 to 10
COCCOCCOC1C[C@@H]2CC[C@@H](C)[C@@](O)(O2)C(=O)C(=O)N2CCCC[C@H]2C(=O)OC([C@H](C)CC2CC[C@@H](OCCOC)[C@H](OC)C2)CC(=O)[C@H](C)/C=C(\C)[C@@H](O)[C@@H](OC)C(=O)[C@H](C)C[C@H](C)/C=C/C=C/C=C/1C (some centres unmarked) [Compound I-92] | 0.1 to 1
CO[C@@H]1C[C@H](C[C@@H](C)[C@@H]2CC(=O)[C@H](C)/C=C(\C)[C@@H](O)[C@@H](OC)C(=O)[C@H](C)C[C@H](C)/C=C/C=C/C=C(\C)C(OCCOCCOCCOCCOCCOCCOCCOCCOCCOCCO)C[C@@H]3CC[C@@H](C)[C@@](O)(O3)C(=O)C(=O)N3CCCC[C@H]3C(=O)O2)CC[C@H]1O (some centres unmarked) [Compound I-98] | 1 to 10
CO[C@@H]1C[C@H](C[C@@H](C)[C@@H]2CC(=O)[C@H](C)/C=C(\C)[C@@H](O)[C@@H](OC)C(=O)[C@H](C)C[C@H](C)/C=C/C=C/C=C(\C)C(OCCOCC(COCCO)COCCO)C[C@@H]3CC[C@@H](C)[C@@](O)(O3)C(=O)C(=O)N3CCCC[C@H]3C(=O)O2)CC[C@H]1O (some centres unmarked) [Compound I-100] | 1 to 10
CCCCCCOC1C[C@@H]2CC[C@@H](C)[C@@](O)(O2)C(=O)C(=O)N2CCCC[C@H]2C(=O)O[C@H]([C@H](C)C[C@@H]2CC[C@@H](O)[C@H](OC)C2)CC(=O)[C@H](C)/C=C(\C)[C@@H](O)[C@@H](OC)C(=O)[C@H](C)C[C@H](C)/C=C/C=C/C=C/1C (some centres unmarked) [Compound I-103] | 0.1 to 1
